One compound from patent publication US8445500B2, “Pesticidal compositions” (Dow AgroSciences, LLC., priority 2007, dated 2013) can be followed below.

In this assay the test system is Beet Armyworm Spodoptera exigua. As to the kind of experiment: Insecticidal assay 10, beet armyworm, 128 well bioassay trays. The format is in vivo. The note with it: S. exigua second instar; 50 microliters of 1 milligram per milliliter stock or serial dilutions on diet per well; assessed 5 days after infestation. On the procedure: 10. Insecticidal Assay for Beet Armyworm Spodoptera exigua:
Objective: To assess the insecticidal activity of compounds against S. exigua through contact and ingestion.
Test unit preparation: 128 well bioassay trays are prepared by injecting each well with approximately 1 milliliter of prepared lepidopteran diet. Trays are allowed to dry prior to use.
Compound formulation and application: A 1 milligram per milliliter, stock solution is prepared for each compound by adding 2 milliliters of acetone/water diluent (9:1) to a vial containing 2 milligrams of technical compound. From this stock solution, additional doses may be produced through serial dilution. Once the appropriate concentrations have been prepared, 50 microliters of each solution is applied to the surface of the diet in each of 8 wells. Upon completing application, the trays are allowed to dry.
Infestation: Once dry, each well is infested with a single second instar beet armyworm. The infested wells are sealed with self sticking, ventilated plastic covers.
Holding and assessment: After infestation and sealing, the trays are placed in a growth chamber at 25 C and 40% relative humidity. 5 days after infestation the larvae are assessed for insecticidal effects.

As for `N#Cc1c(NNc2c(Cl)cc(C(F)(F)F)cc2Cl)nc(C(F)(F)F)nc1C(F)(F)F` [Compound 11, 4-[N′-(2,6-dichloro-4-trifluoromethyl-phenyl)-hydrazino]-2,6-bis-trifluoromethyl-pyrimidine-5-carbonitrile], the insecticidal activity entry was “significant insecticidal activity”.
